The target of test [1] is Ba/F3-Δ19del/T790M/C797S (Homo sapiens, UniProt P00533, T790M/C797S, cells depend on it, form not given). Kind of test: Ba/F3-Δ19del/T790M/C797S cell proliferation assay (CellTiter Glo, 72 h). It counts as cell-based. Conditions: CTG, numeric values, read-out: BaF3 Δ19del/T790M/C797S IC50. As for the experimental part:
(§1) Cell line: Ba/F3 cells with stable overexpression of Δ19del/T790M/C797S or L858R/T790M/C797S mutant genes, named Ba/F3-Δ19del/T790M/C797S and Ba/F3-L858R/T790M/C797S, and A431 EGFR wild-type cell line.
(§2) RPMI 1640 and 10% FBS and 1% PS; _EM, 10% PBS and 1% PS
(§3) a) Dilute the test compound (20 mM stock solution) to 10 mM with 100% DMSO as the starting concentration, and then serially dilute 3 times with a “9+0” concentration in 96-well dilution plate (Cat #P-05525, Labcyte);
(§4) b) Dilute compound solution thereof to 1:100 in medium to prepare 10-fold working solution;
(§5) a) Centrifuge the growth cells in logarithmic phase at 1000 rpm for 5 minutes, resuspend the cells in culture medium, and then count the cells;
(§6) b) Inoculate the cells into a 96-well cell culture plate with a density of 2000 cells/well;
(§7) a) The compound prepared in Step 2 was added to a cell plate with 15 μL per well at final concentrations of 1000, 333, 111.1, 37, 12.3, 4.1, 1.4, 0.5, 0.2, and 0 nM. The final concentration of DMSO was 0.1%. The blank control well is with medium (0.1% DMSO).
(§8) b) Incubate cells in an incubatorother 72 hours;
(§9) a) Take out the 96-well cell culture plate and add 50 μl CTG reagent (CellTiter Glo kit, promega, Cat #G7573);
(§10) b) Shake the plate for 2 minutes and let cool at room temperature for 10 minutes,
(§11) c) Read luminous signal value with Perkin Elmer reader.
(§12) Analysis of Experimental Data
(§13) The data were analyzed by GraphPad Prism 6.0 software to obtain the fitting curve of compound activity.
(§14) Fining compound IC50 from nonlinear regression equation:
(§15) Y=Min+(Max−Min)/(1+10^((LogIC50−X)*slope));
(§16) X: Logarithm of compound concentration; Y: luminous signal
(§17) As illustrated in examples, IC50 value is within the following range for the compound of the present invention: “A” represents “IC50≤50 nM”; “B” represents “50 nM<IC50<100 nM”.
On the technique in general: ATP-based viability assays read luminescence as a measure of living cells.

Test [2] deals with A431 EGFR wild-type cell line. Description: A431 EGFR wild-type cell proliferation assay (CellTiter Glo, 72 h). It counts as cell-based. The following applies: Homo sapiens, A-431, CTG, read-out: A431 EGFR WT IC50. The procedure: as §1, §2, §3, §4, §5, §6, §7, §8, §9, §10, §11, §12, §13, §14, §15, §16, §17
Test [3] has as its target EGFR Δ19del/T790M/C797S (Homo sapiens, UniProt P00533, T790M/C797S, form not given). Description: EGFR Δ19del/T790M/C797S kinase test (mobility shift, Caliper EZ Reader). It counts as biochemical. Conditions: kinase enzymatic activity, numeric values. As for the experimental part:
Mobility variation analysis was performed to determine the affinity of the compound for EGFRΔ19del/T790M/C797S. The enzymatic reaction scheme is as follows:
1. Prepare 1* kinase buffer as follows:
2. Preparation of compound concentration gradient: The test compound was tested with an initial concentration of 3000 nM or 100 nM, diluted in a 384 source plate to a 100% DMSO solution with 100-fold final concentration, and the compound is 3-fold diluted with Precision to 10 concentrations. A dispenser Echo 550 was used to transfer 250 nL 100-fold final concentration of the compound to the target plate OptiPlate-384F.
3. Prepare 2.5-fold final concentration of kinase solution with 1×Kinase buffer;
4. Add 10 μL of 2.5-fold final concentration of kinase solution to the compound well and the positive control well; add 10 μL of 1×Kinase buffer to the negative control well.
5. Centrifuge at 1000 rpm for 30 seconds, shake the reaction plate for well mixation, and then incubate at room temperature for 10 minutes.
6. Prepare a mixture of ATP and Kinase substrate at 5/3-fold final concentration with 1×Kinase buffer.
7. Add 15 μL mixture of 5/3-fold final concentration of ATP and substrate to start reaction.
8. Centrifuge the 384-well plate at 1000 rpm for 30 seconds, shake it well and then incubate it at room temperature for corresponding time.
9. Add 30 μL of stop detection solution to stop the kinase reaction, centrifuge at 1000 rpm for 30 seconds, shake it well.
10. Read conversion rate with Caliper EZ Reader.
% Inhibition=((Conversion%_max−Conversion%_sample)/(Conversion%_max−Conversion%_min))*100
Wherein: Conversion%_sample is the sample conversion rate reading; Conversion%_min: Mean value of negative control wells, representing the conversion rate reading of wells without enzymatic activity; Conversion%_max: Mean value of positive control wells, representing the conversion rate reading of wells without compound inhibition.
The dose-effect curve was fitted with concentration log value as X-axis and percentage inhibition rate as Y-axis. Log (inhibitor) vs. Response—Variable Slope of GraphPad Prism 5 was used to fit the dose-effect curve to obtain IC50 value of enzymatic activity for each compound.
The calculation formula is as Y=Bottom (Top−Bottom)/(1+10^((LogIC50−X)*HillSlope)).
As illustrated in examples, IC50 value is within the following range for the compound of the present invention: “A” represents “IC50≤1nM”; “B” represents “1 nM<IC50≤100nM”.

Test [4] addresses Ba/F3-L858R/T790M/C797S (Homo sapiens, UniProt P00533, T790M/C797S/L858R, cells depend on it). Description: Ba/F3-L858R/T790M/C797S cell proliferation assay (CellTiter Glo, 72 h). Type of test: cell-based. Conditions: CTG, numeric values, read-out: BaF3 L858R/T790M/C797S IC50. The procedure: as §1, §2, §3, §4, §5, §6, §7, §8, §9, §10, §11, §12, §13, §14, §15, §16, §17

Chain of EGFR Δ19del/T790M/C797S (P00533 with tags, fused parts or gaps DEL746-750/T790M/C797S, form open): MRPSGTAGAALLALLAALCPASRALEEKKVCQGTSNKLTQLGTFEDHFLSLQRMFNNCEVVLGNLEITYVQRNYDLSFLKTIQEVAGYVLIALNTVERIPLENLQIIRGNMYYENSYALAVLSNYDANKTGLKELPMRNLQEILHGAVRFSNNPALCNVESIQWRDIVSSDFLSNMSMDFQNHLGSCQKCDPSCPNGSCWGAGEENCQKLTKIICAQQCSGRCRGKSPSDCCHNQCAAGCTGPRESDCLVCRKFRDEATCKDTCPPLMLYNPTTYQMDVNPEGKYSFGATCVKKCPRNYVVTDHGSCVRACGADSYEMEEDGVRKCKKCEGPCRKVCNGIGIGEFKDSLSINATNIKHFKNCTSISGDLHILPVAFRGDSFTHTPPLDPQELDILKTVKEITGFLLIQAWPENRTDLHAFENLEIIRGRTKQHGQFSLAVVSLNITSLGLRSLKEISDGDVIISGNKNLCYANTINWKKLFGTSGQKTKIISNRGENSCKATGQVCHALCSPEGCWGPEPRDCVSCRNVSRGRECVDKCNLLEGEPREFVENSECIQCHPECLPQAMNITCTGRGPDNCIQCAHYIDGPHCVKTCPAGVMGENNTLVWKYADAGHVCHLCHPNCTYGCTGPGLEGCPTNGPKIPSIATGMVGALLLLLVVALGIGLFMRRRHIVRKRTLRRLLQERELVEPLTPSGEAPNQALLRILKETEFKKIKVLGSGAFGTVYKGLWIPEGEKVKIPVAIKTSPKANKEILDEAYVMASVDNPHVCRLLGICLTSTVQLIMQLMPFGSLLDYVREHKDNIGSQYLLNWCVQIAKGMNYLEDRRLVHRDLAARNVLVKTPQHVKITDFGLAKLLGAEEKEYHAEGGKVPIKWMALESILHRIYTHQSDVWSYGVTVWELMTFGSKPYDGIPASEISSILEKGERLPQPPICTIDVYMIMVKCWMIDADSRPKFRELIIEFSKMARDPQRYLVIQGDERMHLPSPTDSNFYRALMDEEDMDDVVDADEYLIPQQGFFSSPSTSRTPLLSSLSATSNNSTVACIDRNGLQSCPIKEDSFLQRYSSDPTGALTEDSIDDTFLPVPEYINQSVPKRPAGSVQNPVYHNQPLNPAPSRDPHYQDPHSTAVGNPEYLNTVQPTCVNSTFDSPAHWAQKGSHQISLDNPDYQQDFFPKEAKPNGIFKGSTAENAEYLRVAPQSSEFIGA
Chain of Ba/F3-Δ19del/T790M/C797S (P00533 with tags, fused parts or gaps DEL746-750/T790M/C797S, form open): as above
Chain of Ba/F3-L858R/T790M/C797S (P00533 whole entry T790M/C797S/L858R): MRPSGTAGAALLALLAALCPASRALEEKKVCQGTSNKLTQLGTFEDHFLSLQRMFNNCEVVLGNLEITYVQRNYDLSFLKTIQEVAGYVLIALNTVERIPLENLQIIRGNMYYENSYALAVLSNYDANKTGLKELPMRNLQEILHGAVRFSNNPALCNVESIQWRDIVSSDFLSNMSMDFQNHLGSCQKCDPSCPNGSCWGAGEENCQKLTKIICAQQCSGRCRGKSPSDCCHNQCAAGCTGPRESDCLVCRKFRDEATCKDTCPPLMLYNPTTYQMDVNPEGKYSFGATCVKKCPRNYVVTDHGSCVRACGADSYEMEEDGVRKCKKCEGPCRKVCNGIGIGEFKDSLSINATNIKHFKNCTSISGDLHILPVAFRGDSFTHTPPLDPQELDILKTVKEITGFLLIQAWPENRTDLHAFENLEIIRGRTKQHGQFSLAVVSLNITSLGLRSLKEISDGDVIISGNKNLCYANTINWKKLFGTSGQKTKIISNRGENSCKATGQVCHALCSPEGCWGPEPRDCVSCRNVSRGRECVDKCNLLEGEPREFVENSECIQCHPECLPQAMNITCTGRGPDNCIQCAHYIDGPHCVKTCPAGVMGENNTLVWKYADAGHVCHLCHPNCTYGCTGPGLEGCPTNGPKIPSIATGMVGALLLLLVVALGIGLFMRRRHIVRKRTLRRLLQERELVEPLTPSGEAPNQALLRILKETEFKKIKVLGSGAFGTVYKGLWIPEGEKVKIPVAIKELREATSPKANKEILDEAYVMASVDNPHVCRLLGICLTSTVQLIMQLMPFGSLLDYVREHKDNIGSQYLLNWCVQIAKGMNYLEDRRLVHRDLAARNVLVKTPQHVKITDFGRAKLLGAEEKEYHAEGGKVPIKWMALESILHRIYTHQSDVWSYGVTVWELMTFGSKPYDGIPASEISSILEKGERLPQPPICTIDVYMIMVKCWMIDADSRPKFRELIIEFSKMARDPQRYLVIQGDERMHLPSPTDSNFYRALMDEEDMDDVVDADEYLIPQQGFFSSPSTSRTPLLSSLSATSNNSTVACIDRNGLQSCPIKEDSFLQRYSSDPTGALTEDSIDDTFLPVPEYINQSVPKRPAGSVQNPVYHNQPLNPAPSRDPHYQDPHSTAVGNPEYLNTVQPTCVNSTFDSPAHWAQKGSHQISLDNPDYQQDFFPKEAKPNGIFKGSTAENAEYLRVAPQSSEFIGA

What is called IC50 is the concentration at which inhibition is half-maximal. For `COc1cc(N2CCN(C3CCCC3)CC2)c(-c2cnn(C)c2)cc1Nc1ncc(Br)c(Nc2ccc(C)c(C)c2P(C)(C)=O)n1` [Compound 26, (6-((5-Bromo-2-((4-(4-cyclopentylpiperazine-1-yl)-2-methoxy-5-(1-methyl-1H-pyrazole-4-yl)phenyl)amino)pyrimidin-4-yl)amino)-2,3-dimethylphenyl)dimethylphoshine oxide], the results for the GI50 in test [1] and in test [4] were 4.6 nM and 2.8 nM, respectively. Also, the 50% inhibitory concentration (IC50) in test [2] is 241 nM; in test [3], 0.2 nM.

Take `COc1cc(N2CCN(C3CCCC3)CC2)c(-c2cnn(C)c2)cc1Nc1ncc(Br)c(Nc2ccc3nccnc3c2P(C)(C)=O)n1` [Compound 25, (6-((5-Bromo-2-((4-(4-cyclopentylpiperazine-1yl)-2-methoxy-5-(1-methyl-1H-pyrozole-4-yl)phenyl)amino)pyrimidin-4-yl)amino)quinoxalin-5-yl) dimethylphosphine oxide]: the GI50 is 2.5 nM in test [1] and 4 nM in test [4]. The IC50 in test [2] was 107 nM; in test [3] it was 0.3 nM.

With `COc1cc(N2CCC(N3CCN(C)CC3)CC2)c(-c2cnn(C(F)F)c2)cc1Nc1ncc(Br)c(Nc2ccc3nccnc3c2P(C)(C)=O)n1` [Compound 17], the GI50 in test [1] is 3.5 nM; in test [4], 3.8 nM. Moreover, the IC50 in test [2] was found to be 120 nM; in test [3], 0.3 nM.

Take `COc1cc(N2CCN3CCCCC3C2)c(-c2cnn(C)c2)cc1Nc1ncc(Cl)c(Nc2ccc3nccnc3c2P(C)(C)=O)n1` (stereo in doubt) [Compound 18]: the GI50 in test [1] was found to be 6.7 nM; in test [4], 8.2 nM. Besides, the values for the IC50 in test [2] and in test [3] were 112 nM and 0.2 nM, respectively.

On to `CCn1cc(-c2cc(Nc3ncc(Br)c(Nc4ccc(C)c(C)c4P(C)(C)=O)n3)c(OC)cc2N2CCC(N3CCN(C)CC3)CC2)cn1` [Compound 22, (6-((5-Bromo-2-((5-(1-ethyl-1h-pyrazol-4-yl)-2methoxy-4-(4-(4-methylpiperazine-1-yl)piperidin-1-yl)phenyl)amino)pyrimidine-4-yl)amino)-2,3-dimethylphenyl)dimethylphosphine oxide], for which the GI50 in test [1] was found to be 24.6 nM; in test [4], 31.1 nM. In addition, the IC50 in test [2] came out at 3260 nM; in test [3] it was 4.2 nM.

As for `COc1cc(N2CCOCC2)c(-c2cnn(C)c2)cc1Nc1ncc(Cl)c(Nc2ccc3nccnc3c2P(C)(C)=O)n1` [Compound 9], the GI50 in test [1] came to 8 nM; in test [4] it was 16.8 nM. The IC50 in test [2] came out at 252 nM; in test [3], 0.3 nM.

For the compound `COc1cc(N2CCC(N3CCN(C)CC3)CC2)c(-c2cnn(C)c2)cc1Nc1ncc(Cl)c(Nc2ccc3nc(C4CC4)ccc3c2P(C)(C)=O)n1` [Compound 28, (6-((5-Chloro-2-((2-methoxy-5-(1-methyl-1H-pyrazol-4-yl)-4-(4-(4-methylpiperazine-1-yl)piperidine-1-yl)phenyl)amino)pyrimidin-4-yl)amino)-2-cyclopropylquinolin-5-yl)dimethylphosphine oxide], the GI50 in test [1] was found to be 1 nM; in test [4] it was 6.6 nM. Moreover, the figures for the IC50 in test [2] and in test [3] were 201 nM and 0.31 nM, respectively.

For the compound `COc1cc(N2CCC(N(C)C)CC2)c(-c2cn[nH]c2)cc1Nc1ncc(Cl)c(Nc2ccc3nccnc3c2P(C)(C)=O)n1` [Compound 3, (6-((5-Chloro-2-((4-(4-(dimethylamino)piperidin-1-yl)-2-methoxy-5-(1H-pyrazol-4-yl)benzene)amino)pyrimidin-4-yl)amino)quinoxalin-5-yl)dimethylphosphine oxide], the GI50 in test [1] and in test [4] was 60.4 nM in each case. Besides, the IC50 in test [2] was 571 nM; in test [3] it was 0.3 nM.

Turning to `CCn1cc(-c2cc(Nc3ncc(Br)c(Nc4ccc(C)c(C)c4P(C)(C)=O)n3)c(OC)cc2N2CCOCC2)cn1` [Compound 21], the GI50 in test [1] amounted to 0.7 nM; in test [4] it was 3.6 nM. Besides, the IC50 in test [2] was determined as 465 nM; in test [3] it was 0.3 nM.

Values taken from US20220259235A1, “EGFR Inhibitor, Composition, and Preparation Method Therefor” (BETTA PHARMACEUTICALS CO., LTD, priority 2019, published 2022).
